Like-named read-outs stand apart in the source and are kept apart here.
Assays:
ERRβ = target: T1, ERRβ (Homo sapiens, UniProt O95718); experiment: ThermoFluor thermal shift assay, ERRβ; type: binding; settings: for ΔTm, thermal stabilization of ERRβ / ΔTm at 100 µM: 100 μM test compound, 0.1 mg/mL protein, 25 mM HEPES pH 8.0, Tm free protein 47.5 °C; for Kd: read-out: Estimated dissociation constant, ERRβ; for ΔTm at 100 µM: read-out: ΔTm, thermal stabilization of ERRβ
T1 sequence (O95718 208-432 limits assumed): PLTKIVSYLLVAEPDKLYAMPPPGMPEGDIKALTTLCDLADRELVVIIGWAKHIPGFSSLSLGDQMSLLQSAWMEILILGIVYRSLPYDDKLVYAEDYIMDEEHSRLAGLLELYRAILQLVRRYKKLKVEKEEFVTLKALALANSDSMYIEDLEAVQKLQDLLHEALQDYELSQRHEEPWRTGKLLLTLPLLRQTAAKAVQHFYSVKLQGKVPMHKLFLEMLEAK

[1] = target: T2, ligand binding domain of ERRγ (Homo sapiens, UniProt P62508); experiment: ThermoFluor thermal shift assay, ERRγ ligand binding domain; settings: for ΔTm, thermal stabilization of ERRγ / ΔTm at 100 µM: 100 μM test compound, 0.1 mg/mL protein, 25 mM HEPES pH 8.0, Tm free protein 49.6 °C; for Kd: read-out: Estimated dissociation constant, ERRγ; for ΔTm at 100 µM: read-out: ΔTm, thermal stabilization of ERRγ
T2 construct: 6His; made in house; host or cells: E. coli BL21(DE3)
T2 sequence (P62508 229-458): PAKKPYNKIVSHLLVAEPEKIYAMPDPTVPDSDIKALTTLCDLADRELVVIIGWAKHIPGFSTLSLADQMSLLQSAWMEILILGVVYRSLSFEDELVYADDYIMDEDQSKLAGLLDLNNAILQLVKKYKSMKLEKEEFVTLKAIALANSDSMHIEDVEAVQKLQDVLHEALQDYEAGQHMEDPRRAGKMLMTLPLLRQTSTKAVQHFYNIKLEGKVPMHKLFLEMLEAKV
Method: The vector was in E. coli BL21(DE3) and cultured in Minimal media (M9) at 37° C. to an OD595 0.6-0.8, followed by induction at 15° C. with 0.4 mM IPTG for 20 hours. The next day, the culture was harvested and lysed in buffer A (Buffer A: 20 mM Tris-HCl, pH 7.5, 0.4 M NaCl and 5 mM Imidazole) using an Emulsiflex-C5 french press (Avestin). Lysates were spun at 40,000×g for 45 minutes to remove insoluble material. The clarified lysate was applied on a Ni-NTA column and eluted with a linear gradient of imidazole. The protein was further purified by applying the eluent on a Superdex 200 HR 10/30 column (Amersham Pharmacia Biotech) equilibrated with Buffer B (Buffer B: 20 mM Tris-HCl pH 7.5, 0.2M NaCl, 1 mM EDTA and 1 mM DTT). […] Fractions were pulled and concentrated to 4 mg/ml and frozen in liquid nitrogen and stored at −80° C.
The ligand binding domain of ERRγ was screened against a library of known estrogen activators and a generic drug library using ThermoFluor®. ThermoFluor® is a miniaturized thermal shift assay, that has been developed for HTS applications; as a secondary assay for confirmation and characterization of hits; and as a functional assay to characterize orphan proteins. ThermoFluor® exploits the well-described phenomenon of ligand induced stabilization of macromolecules. Ligand binding energy adds directly to the ground state energy of a macromolecule and results in increased thermal stability. The degree of stabilization is proportional to the binding affinity of the ligand for the macromolecule.
Assay plates were prepared by dispensing 2 μL of a protein-dye solution and 2 μL of the test compound in a 384-well plate. […] Finally 1 μL of mineral oil was dispensed on top to prevent evaporation during the high throughput screen (HTS). ThermoFluor® is an HTS assay that measures protein unfolding based on fluorescence detection of the denatured form of the protein. The reporter for the protein unfolding event is the environmentally sensitive dye ANS that is incorporated in the screening buffer. During a typical experiment the 384-well plate is heated at a ramping rate of 1° C./min and the thermal unfolding of the protein is monitored at 1° C. intervals by measuring fluorescence changes detected through a CCD camera. Captured images are integrated and a melting curve is generated that relates fluorescence to fraction of unfolded protein as a function of temperature. […] Hits were identified from the screen by measuring an increase in the melting temperature of the protein.
In order to estimate binding affinities, it was taken into account that the oligomeric state of ERRγ which is a dimer (N2), and that of a single ligand (Lf) can interact per monomer subunit with equal affinity. The melting curve for such a system is described by the following three equilibria:
To compare dissociation constants at a common reference temperature, Tref, the following equation was used: […]
In the thermodynamic treatment of the data the following assumptions were made: i) the small ligand interacts only with the folded state of the protein, ii) the reactions are reversible; iii) the unfolding protein reaction is a two-state process and iv) ideal dilute solutions are being used (specific activity for protein and ligands is equal to 1).

ERRα = target: T3, ERRα (Homo sapiens, UniProt P11474); experiment: ThermoFluor thermal shift assay, ERRα; type: binding; settings: for ΔTm, thermal stabilization of ERRα / ΔTm at 100 µM: 100 μM test compound, 0.1 mg/mL protein, 25 mM HEPES pH 8.0, 25 μM ANS, 2% DMSO, Tm free protein 54.4 °C; for ΔTm at 100 µM: read-out: ΔTm, thermal stabilization of ERRα
T3 sequence (P11474 193-421 limits assumed): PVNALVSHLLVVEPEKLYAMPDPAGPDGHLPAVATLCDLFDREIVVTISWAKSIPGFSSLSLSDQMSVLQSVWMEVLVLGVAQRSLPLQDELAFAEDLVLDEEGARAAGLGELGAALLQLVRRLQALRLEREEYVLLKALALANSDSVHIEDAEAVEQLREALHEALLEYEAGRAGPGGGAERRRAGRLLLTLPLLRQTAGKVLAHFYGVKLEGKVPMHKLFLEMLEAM

ERα = target: T4, ERα (Homo sapiens, UniProt P03372); experiment: ThermoFluor thermal shift assay, ERα; type: binding
T4 sequence (P03372 1-595): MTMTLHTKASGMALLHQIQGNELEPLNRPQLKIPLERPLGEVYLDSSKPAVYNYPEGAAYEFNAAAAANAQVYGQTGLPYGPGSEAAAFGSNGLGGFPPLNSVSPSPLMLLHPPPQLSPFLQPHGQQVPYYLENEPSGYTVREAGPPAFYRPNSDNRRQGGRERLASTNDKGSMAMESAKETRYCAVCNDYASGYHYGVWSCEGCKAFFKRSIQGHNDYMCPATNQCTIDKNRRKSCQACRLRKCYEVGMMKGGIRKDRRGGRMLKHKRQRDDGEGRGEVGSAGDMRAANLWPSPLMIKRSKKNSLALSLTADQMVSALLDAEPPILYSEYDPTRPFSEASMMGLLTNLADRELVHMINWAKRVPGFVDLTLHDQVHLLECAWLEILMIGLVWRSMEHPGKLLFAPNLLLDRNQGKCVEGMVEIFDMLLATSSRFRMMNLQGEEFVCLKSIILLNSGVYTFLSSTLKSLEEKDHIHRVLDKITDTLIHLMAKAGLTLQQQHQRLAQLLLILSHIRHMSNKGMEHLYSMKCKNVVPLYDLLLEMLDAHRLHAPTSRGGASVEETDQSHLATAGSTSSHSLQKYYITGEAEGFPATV

ERβ = ERβ (Homo sapiens, UniProt Q92731); experiment: ThermoFluor thermal shift assay, ERβ; type: binding; settings: for Kd: calculated at reference temperature 25 °C from ΔTm of Table II, ΔHu 122 kcal/mol, read-out: Estimated dissociation constant, ERγ
[2] = 100 μM test compound, 0.1 mg/mL protein, 25 mM HEPES pH 8.0, Tm free protein 39.1 °C
[3] = calculated at reference temperature 25 °C from ΔTm of Table II, ΔHu 112 kcal/mol, read-out: Estimated dissociation constant, ERα
[4] = 100 μM test compound, 0.1 mg/mL protein, 25 mM HEPES pH 8.0, Tm free protein 41.1 °C
[5] = 100 μM test compound, 0.1 mg/mL protein, 25 mM HEPES pH 8.0, Tm free protein 41.1 °C, read-out: ΔTm, thermal stabilization of ERβ
[6] = 100 μM test compound, 0.1 mg/mL protein, 25 mM HEPES pH 8.0, Tm free protein 39.1 °C, read-out: ΔTm, thermal stabilization of ERα

Chain of ERβ (Q92731 whole entry, species assumed): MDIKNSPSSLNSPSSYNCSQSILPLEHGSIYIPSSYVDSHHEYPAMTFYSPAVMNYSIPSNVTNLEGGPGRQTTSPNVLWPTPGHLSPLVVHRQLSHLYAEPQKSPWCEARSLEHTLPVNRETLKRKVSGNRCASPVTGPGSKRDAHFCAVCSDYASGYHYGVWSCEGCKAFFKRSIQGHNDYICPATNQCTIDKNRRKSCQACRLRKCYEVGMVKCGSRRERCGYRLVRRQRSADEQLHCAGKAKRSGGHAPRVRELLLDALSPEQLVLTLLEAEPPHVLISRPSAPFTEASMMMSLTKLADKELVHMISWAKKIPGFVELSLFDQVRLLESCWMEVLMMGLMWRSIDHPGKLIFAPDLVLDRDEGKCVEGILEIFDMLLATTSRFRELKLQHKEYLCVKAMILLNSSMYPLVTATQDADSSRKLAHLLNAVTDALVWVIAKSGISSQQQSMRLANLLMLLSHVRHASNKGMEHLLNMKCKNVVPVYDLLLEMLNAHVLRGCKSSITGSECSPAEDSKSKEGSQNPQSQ

Compound | ΔTm, thermal stabilization of ERRβ (ERRβ) | ΔTm, thermal stabilization of ERRγ [1] | ΔTm, thermal stabilization of ERRα (ERRα) | Kd (ERβ) | ΔTm at 100 µM (ERRβ) | ΔTm at 100 µM [1] | ΔTm at 100 µM (ERRα) | ΔTm at 100 µM (ERβ; [5]) | also measured
4-bromocresol | 0.5 °C | 4.3 °C | 0.1 °C |  |  |  |  |  | Kd (ERRβ; calculated at reference temperature 25 °C from ΔTm of Table II, ΔHu 155 kcal/mol): 17200 nM; Kd ([1]; calculated at reference temperature 25 °C from ΔTm of Table II, ΔHu 165 kcal/mol): 633 nM
COc1cc2c(cc1O)CC[C@@H]1[C@@H]2CC[C@]2(C)[C@@H](O)CC[C@@H]12 [2-methoxy-estradiol] | −0.1 °C | 0.0 °C | 0.1 °C | 2310 nM |  |  |  |  | ΔTm, thermal stabilization of ERα (ERα; [2]): 3.5 °C; Kd (ERα; [3]): 2660 nM; ΔTm, thermal stabilization of ERβ (ERβ; [4]): 2.9 °C
C[C@]12CC[C@H]3[C@@H](CCC4=C[C@H](O)CC[C@@H]43)[C@@H]1CC[C@@H]2O [4-estrene-3-α-17-β-diol] |  |  |  | 157 nM | -0.1 °C | -0.1 °C | 0 °C | 7.7 °C | Kd (ERα): 1270 nM; ΔTm at 100 µM (ERα; pH 8, read-out: ΔTm, thermal stabilization of ERα): 4.9 °C
CCc1cc(O)ccc1Cl [4chloro-3ethyl-phenol] |  |  |  |  | 0.4 °C | 4.1 °C | 0.2 °C |  | Kd (ERRβ): 18000 nM; Kd [1]: 722 nM
C[C@]12CC[C@@H]3c4ccc(O)cc4CC[C@H]3[C@@H]1CC[C@H]2O [17-α-estradiol] | 0.0 °C | 1.3 °C |  |  |  |  |  |  | 
C[C@]12CC[C@@H]3c4ccc(O)cc4CC[C@H]3[C@@H]1CC[C@@H]2O [17-β-estradiol] | −0.1 °C | 0.6 °C |  |  |  |  |  |  | 
N#CC(Cc1ccc(O)cc1)c1ccc(O)cc1 (stereo not drawn) [DPN] | 0.2 °C | 0.3 °C | −0.2 °C |  |  |  |  |  | 
O=c1c(-c2ccc(O)cc2)coc2cc(O)ccc12 [Daidzein] |  |  |  |  | 0.3 °C | -0.1 °C | 0 °C |  | Interaction with / stabilization of ERRβ, in words (ERRβ; ThermoFluor): did not interact; ΔTm at 100 µM (ERα; [6]): 4.1 °C; Interaction with / stabilization of ERRγ, in words ([1]; ThermoFluor): did not interact; Interaction with / stabilization of ERRα, in words (ERRα; ThermoFluor): did not interact; ΔTm at 100 µM (ERβ; pH 8, read-out: ΔTm, thermal stabilization of ERβ): 8.9 °C
C[C@]12CC[C@@H]3c4ccc(O)cc4C[C@@H](CCCCCCCCC[S+]([O-])CCCC(F)(F)C(F)(F)F)[C@H]3[C@@H]1CC[C@@H]2O (stereo partly drawn) [ICI-182780] |  |  |  |  | 0 °C | 0 °C | 0 °C | 16.7 °C | ΔTm at 100 µM (ERα; [6]): 13.9 °C
CCCc1c(-c2ccc(O)cc2)nn(-c2ccc(O)cc2)c1-c1ccc(O)cc1 [PPT] | −3.5 °C | −1.8 °C | −2.3 °C | 58.3 nM |  |  |  |  | ΔTm, thermal stabilization of ERα (ERα; [2]): 11.7 °C; Kd (ERα; [3]): 38.7 nM; ΔTm, thermal stabilization of ERβ (ERβ; [4]): 9.5 °C
CCN(CC)CCOc1ccc(C(=C(Cl)c2ccccc2)c2ccccc2)cc1 [clomiphene] |  |  |  | 52.1 nM |  |  |  | 9.7 °C | 
O=C(c1ccc(OCCN2CCCCC2)cc1)c1c(-c2ccc(O)cc2)sc2cc(O)ccc12 [raloxifene] |  |  |  |  |  |  |  | 11.9 °C | 
Oc1ccc(/C=C/c2cc(O)cc(O)c2)cc1 [resvesterol] | 0.2 °C | 0.4 °C | 0.0 °C |  |  |  |  |  | 

From US7655756B2 (Johnson & Johnson Pharmaceutical Research & Development, LLC, priority 2005, dated 2010)
